Earlier results on two compounds are cited in paper PMC3201700 (Journal of agricultural and food chemistry, 2011).

Read-outs that look alike come from different tables or passages of the source.

Series [1] concerns MRP1 and MRP2. As to conditions: SFN compared with ERN.
The conditions of series [2]: rats.

For `C[S+]([O-])CCCCN=C=S` (stereo not drawn) [SFN, sulforaphane], the “Induction of MRP1 and MRP2 (phase III detoxification)” value in series [1] is reported as “substantially more potent than ERN”.
With `C[S+]([O-])CCCC/C(=N\OS(=O)(=O)O)S[C@@H]1O[C@H](CO)[C@@H](O)[C@H](O)[C@H]1O` (stereo partly drawn) [glucoraphanin], the “Recovery of the dose in the urine after 24 h” value in series [2] (by gavage) is 27.6%; in series [2] (in the diet), 23.8%.
